Values quoted from earlier work, collected in patent US20040185057A1, “Therapeutical vaccination” (priority 2001, published 2004).

Tested on: HLA-A2 super type MHC class-I molecule, allele A*6802
Conditions: HLA-A2 allele A*6802; read-out: Binding capacity, IC50

Compound | IC50 [nM]
KMIGGIGGFI | 3330
LLQLTVWGI | 645
LTFGWCFKL | 5.6
SLLNATDIAV | 5480
RILQQLLFI | 1820
LVGPTPVNI | 67.8
LTFGWCFKLV | 6.2
AIIRILQQL | 548
MASDFNLPPV | 18.2
MTNNPPIPV | 12.1

Tested on: not given
Conditions: concentrations in the pg range

Compound | immunomodulating effect
CC(=O)O[C@@H]1[C@H](O[C@@H]2O[C@@H](CO)[C@H](O)[C@H]2O)[C@@H](O[C@@H]2O[C@@H](C)[C@H](O[C@@H]3OC[C@@H](O)[C@H](O)[C@H]3O)[C@@H](O)[C@H]2O)[C@H](OC(=O)[C@]23CCC(C)(C)C[C@H]2C2=CC[C@@H]4[C@@]5(C)CC[C@H](O[C@@H]6O[C@H](C(=O)O)[C@@H](O)[C@H](O[C@@H]7OC[C@@H](O)[C@H](O)[C@H]7O)[C@H]6O[C@@H]6O[C@H](CO)[C@H](O)[C@H](O)[C@H]6O)[C@@](C)(C=O)[C@H]5CC[C@@]4(C)[C@]2(C)CC3)O[C@@H]1C [Squarroside A] | stimulant effect

Same assay, conditions: concentrations in the μg range

Compound | immunomodulating effect
CC(=O)O[C@@H]1[C@H](O[C@@H]2O[C@@H](CO)[C@H](O)[C@H]2O)[C@@H](O[C@@H]2O[C@@H](C)[C@H](O[C@@H]3OC[C@@H](O)[C@H](O)[C@H]3O)[C@@H](O)[C@H]2O)[C@H](OC(=O)[C@]23CCC(C)(C)C[C@H]2C2=CC[C@@H]4[C@@]5(C)CC[C@H](O[C@@H]6O[C@H](C(=O)O)[C@@H](O)[C@H](O[C@@H]7OC[C@@H](O)[C@H](O)[C@H]7O)[C@H]6O[C@@H]6O[C@H](CO)[C@H](O)[C@H](O)[C@H]6O)[C@@](C)(C=O)[C@H]5CC[C@@]4(C)[C@]2(C)CC3)O[C@@H]1C [Squarroside A] | suppressive effect
